Measurements as given in patent US12227500B2, “Substituted pyrrolo[2,3-b]pyridines for suppressing toxic endoplasmic reticulum stress” (THE TRUSTEES OF COLUMBIA UNIVERSITY IN THE CITY OF NEW YORK, priority 2018, dated 2025).
Like-named read-outs stand apart in the source and are kept apart here.

Columns and labels:
Assay in all cases: Radiolabeled ATP kinase assay, panel of 60 kinases (Table S5)
Type in all cases: biochemical
[1] = target: T1, panel of 60 human kinases (Homo sapiens, UniProt O60285); conditions: ARK5/NUAK1; 0.1 μM; 10 μM ATP; read-out: % Enzyme Activity (relative to DSMO controls)
T1 construct: purchased Reaction Biology Corp
T1 sequence (O60285 1-661): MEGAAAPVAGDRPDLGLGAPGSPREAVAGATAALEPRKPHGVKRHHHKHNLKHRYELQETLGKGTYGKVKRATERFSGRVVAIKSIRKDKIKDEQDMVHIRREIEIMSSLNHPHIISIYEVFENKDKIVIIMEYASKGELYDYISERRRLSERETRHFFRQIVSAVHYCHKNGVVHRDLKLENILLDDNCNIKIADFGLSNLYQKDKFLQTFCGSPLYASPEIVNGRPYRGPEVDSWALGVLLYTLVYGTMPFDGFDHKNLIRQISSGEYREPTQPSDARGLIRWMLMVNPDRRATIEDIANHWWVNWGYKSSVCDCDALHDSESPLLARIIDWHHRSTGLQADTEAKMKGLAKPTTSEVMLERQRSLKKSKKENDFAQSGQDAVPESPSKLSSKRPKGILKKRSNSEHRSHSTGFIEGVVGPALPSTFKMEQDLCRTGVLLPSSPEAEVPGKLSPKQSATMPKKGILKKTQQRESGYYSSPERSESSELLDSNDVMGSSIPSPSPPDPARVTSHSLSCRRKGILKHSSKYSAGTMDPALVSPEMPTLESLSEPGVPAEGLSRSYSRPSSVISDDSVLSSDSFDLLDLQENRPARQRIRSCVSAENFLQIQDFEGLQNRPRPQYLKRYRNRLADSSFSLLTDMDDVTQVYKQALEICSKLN
Summary of the method: (§1)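 Cell-free radiolabeled-ATP kinase assays across a panel of 60 kinases; each compound tested at 0.1 μM and 0.5 μM for inhibition.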

[2] = target: T2, panel of 60 human kinases (Homo sapiens, UniProt O75460); conditions: ERN1/IRE1; 0.1 μM; 10 μM ATP; read-out: % Enzyme Activity (relative to DSMO controls)
T2 construct: purchased Reaction Biology Corp
T2 sequence (O75460 19-977): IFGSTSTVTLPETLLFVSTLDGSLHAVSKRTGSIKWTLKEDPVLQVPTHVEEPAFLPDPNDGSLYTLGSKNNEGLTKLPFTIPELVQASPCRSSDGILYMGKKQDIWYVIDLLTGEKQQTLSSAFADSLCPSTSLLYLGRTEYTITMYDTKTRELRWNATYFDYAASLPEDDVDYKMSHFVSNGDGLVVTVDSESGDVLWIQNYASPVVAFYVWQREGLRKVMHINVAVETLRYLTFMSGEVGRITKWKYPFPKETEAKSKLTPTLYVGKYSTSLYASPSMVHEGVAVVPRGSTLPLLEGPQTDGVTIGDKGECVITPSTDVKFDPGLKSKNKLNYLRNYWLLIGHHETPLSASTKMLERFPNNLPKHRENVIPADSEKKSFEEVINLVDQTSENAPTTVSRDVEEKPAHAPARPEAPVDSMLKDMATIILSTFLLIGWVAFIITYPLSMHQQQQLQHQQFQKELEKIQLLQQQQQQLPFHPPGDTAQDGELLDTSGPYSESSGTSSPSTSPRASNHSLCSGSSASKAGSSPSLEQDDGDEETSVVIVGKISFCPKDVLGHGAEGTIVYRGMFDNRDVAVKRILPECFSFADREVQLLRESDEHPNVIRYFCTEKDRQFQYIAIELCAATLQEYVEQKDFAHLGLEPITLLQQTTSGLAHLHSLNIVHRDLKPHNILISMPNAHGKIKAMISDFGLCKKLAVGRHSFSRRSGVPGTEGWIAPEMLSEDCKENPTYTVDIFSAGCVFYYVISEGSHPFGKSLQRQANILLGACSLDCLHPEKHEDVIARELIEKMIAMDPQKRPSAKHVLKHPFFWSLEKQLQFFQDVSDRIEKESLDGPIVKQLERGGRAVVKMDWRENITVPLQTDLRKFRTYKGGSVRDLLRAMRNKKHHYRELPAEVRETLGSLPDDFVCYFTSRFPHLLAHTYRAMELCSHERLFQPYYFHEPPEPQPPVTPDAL
Summary of the method: as §1

[3] = target: T3, panel of 60 human kinases (Homo sapiens, UniProt P11802); conditions: 0.1 μM, 10 μM ATP, read-out: % Enzyme Activity (relative to DSMO controls)
T3 construct: purchased Reaction Biology Corp
T3 sequence (P11802 whole entry): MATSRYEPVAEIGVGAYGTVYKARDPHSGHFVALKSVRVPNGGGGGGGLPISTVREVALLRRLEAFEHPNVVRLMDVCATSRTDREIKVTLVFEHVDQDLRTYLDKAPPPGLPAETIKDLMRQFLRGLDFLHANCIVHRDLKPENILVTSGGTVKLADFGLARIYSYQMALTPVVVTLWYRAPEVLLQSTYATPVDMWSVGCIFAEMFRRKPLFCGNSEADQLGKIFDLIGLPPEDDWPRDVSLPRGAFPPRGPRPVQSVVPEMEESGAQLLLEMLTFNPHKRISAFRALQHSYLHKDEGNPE
Summary of the method: as §1

[4] = target: T4, panel of 60 human kinases (Homo sapiens, UniProt P24941); conditions: 0.1 μM, 10 μM ATP, read-out: % Enzyme Activity (relative to DSMO controls)
T4 construct: purchased Reaction Biology Corp
Summary of the method: as §1

[5] = target: T5, panel of 60 human kinases (Homo sapiens, UniProt P49760); conditions: CLK2; 0.1 μM; 10 μM ATP; read-out: % Enzyme Activity (relative to DSMO controls)
T5 construct: purchased Reaction Biology Corp
T5 sequence (P49760 whole entry): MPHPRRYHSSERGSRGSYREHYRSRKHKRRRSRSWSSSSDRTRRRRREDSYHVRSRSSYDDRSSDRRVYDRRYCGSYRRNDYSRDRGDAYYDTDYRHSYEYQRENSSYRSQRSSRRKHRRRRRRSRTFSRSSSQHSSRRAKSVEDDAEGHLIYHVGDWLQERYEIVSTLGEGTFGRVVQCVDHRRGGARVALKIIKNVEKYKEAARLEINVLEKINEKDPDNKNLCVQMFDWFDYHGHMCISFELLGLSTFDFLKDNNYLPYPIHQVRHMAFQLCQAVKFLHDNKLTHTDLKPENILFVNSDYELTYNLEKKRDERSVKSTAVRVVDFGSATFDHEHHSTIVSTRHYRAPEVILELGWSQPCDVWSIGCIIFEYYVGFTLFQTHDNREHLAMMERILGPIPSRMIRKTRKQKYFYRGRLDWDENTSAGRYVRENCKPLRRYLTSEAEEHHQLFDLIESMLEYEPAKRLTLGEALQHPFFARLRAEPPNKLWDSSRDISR
Summary of the method: as §1

[6] = target: T6, panel of 60 human kinases (Homo sapiens, UniProt P49841); conditions: GSK3b; 0.1 μM; 10 μM ATP; read-out: % Enzyme Activity (relative to DSMO controls)
T6 construct: purchased Reaction Biology Corp
T6 sequence (P49841 whole entry): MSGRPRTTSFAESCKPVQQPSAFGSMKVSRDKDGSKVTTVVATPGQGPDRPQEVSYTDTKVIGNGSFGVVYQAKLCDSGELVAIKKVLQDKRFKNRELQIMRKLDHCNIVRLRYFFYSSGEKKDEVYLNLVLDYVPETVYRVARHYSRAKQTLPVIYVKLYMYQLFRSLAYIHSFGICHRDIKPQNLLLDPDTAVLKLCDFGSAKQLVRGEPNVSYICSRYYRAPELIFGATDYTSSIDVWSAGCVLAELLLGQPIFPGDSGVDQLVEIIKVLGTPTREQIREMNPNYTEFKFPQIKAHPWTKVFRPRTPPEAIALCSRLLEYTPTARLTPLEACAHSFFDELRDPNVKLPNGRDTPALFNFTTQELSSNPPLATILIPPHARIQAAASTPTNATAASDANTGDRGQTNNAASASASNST
Summary of the method: as §1

[7] = target: T7, panel of 60 human kinases (Homo sapiens, UniProt Q07002); conditions: CDK18/cyclin Y (PCTK3); 0.1 μM; 10 μM ATP; read-out: % Enzyme Activity (relative to DSMO controls)
T7 construct: purchased Reaction Biology Corp
T7 sequence (Q07002 whole entry): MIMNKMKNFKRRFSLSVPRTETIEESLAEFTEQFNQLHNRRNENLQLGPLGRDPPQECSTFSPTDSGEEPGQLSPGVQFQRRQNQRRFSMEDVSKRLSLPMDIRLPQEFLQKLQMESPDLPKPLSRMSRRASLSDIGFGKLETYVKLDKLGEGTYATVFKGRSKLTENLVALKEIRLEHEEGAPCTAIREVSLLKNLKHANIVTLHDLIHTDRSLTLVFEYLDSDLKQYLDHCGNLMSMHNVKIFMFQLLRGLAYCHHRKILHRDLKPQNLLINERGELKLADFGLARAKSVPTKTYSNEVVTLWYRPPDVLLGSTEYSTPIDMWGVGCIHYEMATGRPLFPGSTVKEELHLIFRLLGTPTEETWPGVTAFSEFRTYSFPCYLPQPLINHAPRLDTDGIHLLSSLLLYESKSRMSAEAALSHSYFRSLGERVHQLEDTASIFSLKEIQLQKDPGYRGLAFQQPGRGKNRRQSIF
Summary of the method: as §1

[8] = target: T8, panel of 60 human kinases (Homo sapiens, UniProt Q13627); conditions: DYRK/RK1A; 0.1 μM; 10 μM ATP; read-out: % Enzyme Activity (relative to DSMO controls)
T8 construct: purchased Reaction Biology Corp
Summary of the method: as §1

[9] = target: T9, panel of 60 human kinases (Homo sapiens, UniProt Q7L7X3); conditions: TAOK1; 0.1 μM; 10 μM ATP; read-out: % Enzyme Activity (relative to DSMO controls)
T9 construct: purchased Reaction Biology Corp
T9 sequence (Q7L7X3 1-1001): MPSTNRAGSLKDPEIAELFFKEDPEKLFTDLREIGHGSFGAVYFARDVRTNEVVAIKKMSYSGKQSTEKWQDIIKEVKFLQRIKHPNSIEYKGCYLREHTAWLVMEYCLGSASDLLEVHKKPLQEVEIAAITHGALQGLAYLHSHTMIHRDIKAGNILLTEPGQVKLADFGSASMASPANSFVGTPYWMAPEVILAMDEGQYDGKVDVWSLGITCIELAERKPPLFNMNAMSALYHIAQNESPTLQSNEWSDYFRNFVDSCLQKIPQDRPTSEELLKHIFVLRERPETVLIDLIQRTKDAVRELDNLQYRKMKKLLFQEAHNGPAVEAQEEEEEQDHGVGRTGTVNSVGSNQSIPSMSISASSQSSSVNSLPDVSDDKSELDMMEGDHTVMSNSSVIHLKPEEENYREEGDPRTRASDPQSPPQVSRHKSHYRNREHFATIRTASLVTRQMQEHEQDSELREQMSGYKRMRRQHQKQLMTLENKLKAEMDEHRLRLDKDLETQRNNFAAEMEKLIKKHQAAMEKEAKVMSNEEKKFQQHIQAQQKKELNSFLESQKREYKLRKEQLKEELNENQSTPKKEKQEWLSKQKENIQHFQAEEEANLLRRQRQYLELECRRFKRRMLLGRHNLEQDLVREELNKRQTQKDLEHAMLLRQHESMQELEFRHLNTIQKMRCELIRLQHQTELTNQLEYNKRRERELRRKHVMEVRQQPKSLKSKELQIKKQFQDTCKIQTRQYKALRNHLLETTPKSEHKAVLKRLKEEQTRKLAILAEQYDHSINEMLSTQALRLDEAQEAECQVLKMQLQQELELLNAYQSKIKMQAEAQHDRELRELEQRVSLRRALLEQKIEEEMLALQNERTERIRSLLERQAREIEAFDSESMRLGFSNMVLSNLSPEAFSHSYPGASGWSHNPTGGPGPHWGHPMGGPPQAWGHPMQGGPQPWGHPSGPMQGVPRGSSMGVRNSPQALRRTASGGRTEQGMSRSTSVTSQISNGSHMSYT
Summary of the method: as §1

[10] = target: T10, panel of 60 human kinases (Homo sapiens, UniProt Q9UM73); conditions: ALK; 0.1 μM; 10 μM ATP; read-out: % Enzyme Activity (relative to DSMO controls)
T10 construct: purchased Reaction Biology Corp
T10 sequence (Q9UM73 19-1620): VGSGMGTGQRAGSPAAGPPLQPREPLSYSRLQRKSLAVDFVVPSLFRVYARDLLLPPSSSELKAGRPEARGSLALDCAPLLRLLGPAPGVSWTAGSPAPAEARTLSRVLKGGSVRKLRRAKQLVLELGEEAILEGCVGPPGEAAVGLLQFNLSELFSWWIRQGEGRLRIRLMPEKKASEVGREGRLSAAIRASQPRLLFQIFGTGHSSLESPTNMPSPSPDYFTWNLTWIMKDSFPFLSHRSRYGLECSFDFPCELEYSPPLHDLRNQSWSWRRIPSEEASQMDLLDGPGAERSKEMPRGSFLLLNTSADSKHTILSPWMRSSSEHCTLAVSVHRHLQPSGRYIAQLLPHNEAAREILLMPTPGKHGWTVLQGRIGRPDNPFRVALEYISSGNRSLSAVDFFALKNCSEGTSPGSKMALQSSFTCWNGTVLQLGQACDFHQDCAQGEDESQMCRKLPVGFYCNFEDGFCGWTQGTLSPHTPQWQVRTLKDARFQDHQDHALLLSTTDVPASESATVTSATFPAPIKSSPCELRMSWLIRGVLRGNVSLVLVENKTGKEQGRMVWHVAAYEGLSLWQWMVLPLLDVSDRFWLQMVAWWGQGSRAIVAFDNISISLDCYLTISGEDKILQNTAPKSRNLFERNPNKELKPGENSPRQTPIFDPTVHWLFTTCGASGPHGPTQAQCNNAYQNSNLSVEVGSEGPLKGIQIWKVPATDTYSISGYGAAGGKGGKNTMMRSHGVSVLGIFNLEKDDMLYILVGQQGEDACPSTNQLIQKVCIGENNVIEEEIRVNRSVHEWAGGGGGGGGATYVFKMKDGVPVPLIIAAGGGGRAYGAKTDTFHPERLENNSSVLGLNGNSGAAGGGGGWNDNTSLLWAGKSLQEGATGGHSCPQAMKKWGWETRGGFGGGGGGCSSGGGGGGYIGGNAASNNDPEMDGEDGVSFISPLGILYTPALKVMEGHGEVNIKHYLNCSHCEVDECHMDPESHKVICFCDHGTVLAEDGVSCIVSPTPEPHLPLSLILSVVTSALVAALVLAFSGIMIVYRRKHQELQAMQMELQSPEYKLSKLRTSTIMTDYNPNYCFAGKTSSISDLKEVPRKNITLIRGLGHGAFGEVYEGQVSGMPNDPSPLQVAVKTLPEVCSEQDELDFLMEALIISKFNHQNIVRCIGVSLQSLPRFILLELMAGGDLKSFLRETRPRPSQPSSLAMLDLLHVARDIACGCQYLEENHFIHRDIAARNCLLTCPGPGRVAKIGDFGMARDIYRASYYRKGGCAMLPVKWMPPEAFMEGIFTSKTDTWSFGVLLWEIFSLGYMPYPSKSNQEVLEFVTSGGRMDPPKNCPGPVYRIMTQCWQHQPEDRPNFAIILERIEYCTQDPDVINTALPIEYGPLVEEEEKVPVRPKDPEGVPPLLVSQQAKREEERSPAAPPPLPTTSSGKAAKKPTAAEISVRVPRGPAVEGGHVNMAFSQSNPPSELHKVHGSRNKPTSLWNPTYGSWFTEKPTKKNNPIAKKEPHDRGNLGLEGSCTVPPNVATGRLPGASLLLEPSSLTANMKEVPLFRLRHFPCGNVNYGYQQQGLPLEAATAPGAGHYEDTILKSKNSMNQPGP
Summary of the method: as §1

CN1CCN(Cc2ccc(-c3cnc4[nH]cc(-c5ccc6[nH]ccc6c5)c4c3)cc2)CC1 [Compound 1, 3-(1H-Indol-5-yl)-5-(4-((4-methylpiperazin-1-yl)methyl)phenyl)-1H-pyrrolo[2,3-b]pyridine, reference compound]
remaining activity at 0.1 µM [1]: 5.96% | remaining activity at 0.1 µM [2]: 108% | remaining activity at 0.1 µM ([3]; CDK4/cyclin D1): 51% | remaining activity at 0.1 µM ([3]; CDK4/cyclin D3): 49.1% | remaining activity at 0.1 µM ([4]; CDK2/cyclin A1): 83.6% | remaining activity at 0.1 µM ([4]; CDK2/cyclin A): 83.7% | remaining activity at 0.1 µM ([4]; CDK2/cyclin E): 97.9% | remaining activity at 0.1 µM ([4]; CDK2/cyclin O): 72.5% | remaining activity at 0.1 µM [5]: 22.8% | remaining activity at 0.1 µM [6]: 100% | remaining activity at 0.1 µM [7]: 103% | remaining activity at 0.1 µM [8]: 41% | remaining activity at 0.1 µM [9]: 63.5% | remaining activity at 0.1 µM [10]: 25.4%

CN1CCN(Cc2ccc(-c3cnc4[nH]cc(-c5cccc(Cl)c5)c4c3)cc2)CC1 [Compound 7ad, 3-(3-Chlorophenyl)-5-(4-((4-methylpiperazin-1-yl)methyl)phenyl)-1H-pyrrolo[2,3-b]pyridine]
remaining activity at 0.1 µM [1]: 22.4% | remaining activity at 0.1 µM [2]: 102% | remaining activity at 0.1 µM ([3]; CDK4/cyclin D1): 70.9% | remaining activity at 0.1 µM ([3]; CDK4/cyclin D3): 58.1% | remaining activity at 0.1 µM ([4]; CDK2/cyclin A1): 97% | remaining activity at 0.1 µM ([4]; CDK2/cyclin A): 87.4% | remaining activity at 0.1 µM ([4]; CDK2/cyclin E): 96.2% | remaining activity at 0.1 µM ([4]; CDK2/cyclin O): 75.1% | remaining activity at 0.1 µM [5]: 79.8% | remaining activity at 0.1 µM [6]: 98.1% | remaining activity at 0.1 µM [7]: 112% | remaining activity at 0.1 µM [8]: 53.4% | remaining activity at 0.1 µM [9]: 75.4% | remaining activity at 0.1 µM [10]: 108%

CN1CCN(Cc2ccc(-c3cnc4[nH]cc(-c5cnn(Cc6ccccc6)c5)c4c3)cc2)CC1 [Compound 7ah, 3-(1-Benzyl-1H-pyrazol-4-yl)-5-(4-((4-methylpiperazin-1-yl)methyl)phenyl)-1H-pyrrolo[2,3-b]pyridine]
remaining activity at 0.1 µM [1]: 0.03% | remaining activity at 0.1 µM [2]: 104% | remaining activity at 0.1 µM ([3]; CDK4/cyclin D1): 25.9% | remaining activity at 0.1 µM ([3]; CDK4/cyclin D3): 26% | remaining activity at 0.1 µM ([4]; CDK2/cyclin A1): 30.7% | remaining activity at 0.1 µM ([4]; CDK2/cyclin A): 44.2% | remaining activity at 0.1 µM ([4]; CDK2/cyclin E): 48.9% | remaining activity at 0.1 µM ([4]; CDK2/cyclin O): 19.2% | remaining activity at 0.1 µM [5]: 4.24% | remaining activity at 0.1 µM [6]: 60.6% | remaining activity at 0.1 µM [7]: 16.1% | remaining activity at 0.1 µM [8]: 4.52% | remaining activity at 0.1 µM [9]: 62.1% | remaining activity at 0.1 µM [10]: 28.8%

Cc1nn(C)c(C)c1-c1c[nH]c2ncc(-c3ccc(CN4CCN(C)CC4)cc3)cc12 [Compound 7ai, 5-(4-((4-Methylpiperazin-1-yl)methyl)phenyl)-3-(1,3,5-trimethyl-1H-pyrazol-4-yl)-1H-pyrrolo[2,3-b]pyridine]
remaining activity at 0.1 µM [1]: 21.6% | remaining activity at 0.1 µM [2]: 102% | remaining activity at 0.1 µM ([3]; CDK4/cyclin D1): 65.9% | remaining activity at 0.1 µM ([3]; CDK4/cyclin D3): 65.4% | remaining activity at 0.1 µM ([4]; CDK2/cyclin A1): 87.8% | remaining activity at 0.1 µM ([4]; CDK2/cyclin A): 90.9% | remaining activity at 0.1 µM ([4]; CDK2/cyclin E): 94.8% | remaining activity at 0.1 µM ([4]; CDK2/cyclin O): 77.9% | remaining activity at 0.1 µM [5]: 52.5% | remaining activity at 0.1 µM [6]: 94% | remaining activity at 0.1 µM [7]: 100% | remaining activity at 0.1 µM [8]: 41.7% | remaining activity at 0.1 µM [9]: 93.3% | remaining activity at 0.1 µM [10]: 76.2%

CN1CCN(Cc2ccc(-c3cnc4[nH]cc(-c5ccccc5Cl)c4c3)cc2)CC1 [Compound 7as, 3-(2-Chlorophenyl)-5-(4-((4-methylpiperazin-1-yl)methyl)phenyl)-1H-pyrrolo[2,3-b]pyridine]
remaining activity at 0.1 µM [1]: 4.44% | remaining activity at 0.1 µM [2]: 97.5% | remaining activity at 0.1 µM ([3]; CDK4/cyclin D1): 31.9% | remaining activity at 0.1 µM ([3]; CDK4/cyclin D3): 39.7% | remaining activity at 0.1 µM ([4]; CDK2/cyclin A1): 65% | remaining activity at 0.1 µM ([4]; CDK2/cyclin A): 69.5% | remaining activity at 0.1 µM ([4]; CDK2/cyclin E): 88.5% | remaining activity at 0.1 µM ([4]; CDK2/cyclin O): 51.2% | remaining activity at 0.1 µM [5]: 22.5% | remaining activity at 0.1 µM [6]: 98.9% | remaining activity at 0.1 µM [7]: 95.5% | remaining activity at 0.1 µM [8]: 42% | remaining activity at 0.1 µM [9]: 39.3% | remaining activity at 0.1 µM [10]: 70.5%

COc1ccccc1-c1c[nH]c2ncc(-c3ccc(CN4CCN(C)CC4)cc3)cc12 [Compound 7at, 3-(2-Methoxyphenyl)-5-(4-((4-methylpiperazin-1-yl)methyl)phenyl)-1H-pyrrolo[2,3-b]pyridine]
remaining activity at 0.1 µM [1]: 22.9% | remaining activity at 0.1 µM [2]: 101% | remaining activity at 0.1 µM ([3]; CDK4/cyclin D1): 14.1% | remaining activity at 0.1 µM ([3]; CDK4/cyclin D3): 24.4% | remaining activity at 0.1 µM ([4]; CDK2/cyclin A1): 58.8% | remaining activity at 0.1 µM ([4]; CDK2/cyclin A): 56.1% | remaining activity at 0.1 µM ([4]; CDK2/cyclin E): 80.6% | remaining activity at 0.1 µM ([4]; CDK2/cyclin O): 29.6% | remaining activity at 0.1 µM [5]: 90.9% | remaining activity at 0.1 µM [6]: 97.3% | remaining activity at 0.1 µM [7]: 97.1% | remaining activity at 0.1 µM [8]: 57.4% | remaining activity at 0.1 µM [9]: 40.5% | remaining activity at 0.1 µM [10]: 77.8%

CN1CCN(Cc2ccc(-c3cnc4[nH]cc(-c5ccc6c(c5)OCCO6)c4c3)cc2)CC1 [Compound 7d, 3-(2,3-Dihydrobenzo[b][1,4]dioxin-6-yl)-5-(4-((4-methylpiperazin-1-yl)methyl)phenyl)-1H-pyrrolo[2,3-b]pyridine]
remaining activity at 0.1 µM [1]: 20.8% | remaining activity at 0.1 µM [2]: 107% | remaining activity at 0.1 µM ([3]; CDK4/cyclin D1): 19.4% | remaining activity at 0.1 µM ([3]; CDK4/cyclin D3): 26.7% | remaining activity at 0.1 µM ([4]; CDK2/cyclin A1): 38.8% | remaining activity at 0.1 µM ([4]; CDK2/cyclin A): 34.4% | remaining activity at 0.1 µM ([4]; CDK2/cyclin E): 89.1% | remaining activity at 0.1 µM ([4]; CDK2/cyclin O): 39% | remaining activity at 0.1 µM [5]: 2.71% | remaining activity at 0.1 µM [6]: 30.9% | remaining activity at 0.1 µM [7]: 82.8% | remaining activity at 0.1 µM [8]: 3.15% | remaining activity at 0.1 µM [9]: 37.3% | remaining activity at 0.1 µM [10]: 73.8%
